Reference: patent US20220023258A1, “METHODS OF TREATING CONDITIONS RELATED TO THE S1P1 RECEPTOR” (Arena Pharmaceuticals, Inc., priority 2018, published 2022)
“Also recorded” adds a separate entry of the source. Structures can show the parent of a compound that is named as a salt.

Key:
healthy adult subjects [1] = test: Multiple ascending dose study: heart rate, blood pressure, QTc; type: in vivo, human; conditions: Day 1 to Day 28
Experimental: A randomized, double-blind, placebo-controlled, sequential, ascending, multiple dose study to assess the safety, tolerability, and pharmacokinetics of the L-arginine salt of Compound 1 administered to healthy adult subjects was conducted. This study was designed to evaluate the safety, tolerability, pharmacokinetics, and pharmacodynamics of the L-arginine salt of Compound 1.
Cohort 1 was dosed with 0.7 mg (by administering two 0.35 mg formulations) for 21 days. Cohort 2 was dosed with 1.35 mg (by administering both a 0.35 mg formulation and a 1 mg formulation) for 21 days. Cohort 3 was dosed with 2.0 mg for 21 days. Cohort 4 was dosed with 0.35 mg for 7 days and then with 2.0 mg for 14 days. Cohort 5 was dosed with 0.5 for 7 days and then with 3.0 mg (by administering both a 1 mg formulation and a 2 mg formulation) for 14 days.
(§1) The following safety assessments were conducted: physical examinations with ophthalmoscopy, clinical laboratory tests (serum chemistry, coagulation, and urinalysis), vital signs, continuous telemetry (12 lead ECG), safety ECGs, pulmonary function testing (PFT), serum protein electrophoresis (SPEP) and serum immunoelectrophoresis (IEP), and adverse event reporting.

[2] = tested on: patients with ulcerative colitis; test: Fecal calprotectin and C-reactive protein in ulcerative colitis study; type: in vivo, human
Experimental: The modified Mayo Clinic score (modified MCS) included endoscopic, rectal bleeding (RB), and stool frequency (SF) subscores. […] Endoscopic improvement was defined as a subscore ≤1. […] Comparisons between subgroups were assessed with a Wilcoxon rank-sum test (2-sided P values). Analysis of correlation between variables was conducted using the Spearman's rank coefficient (2-sided P values).

healthy adult subjects [3] = test: Multiple ascending dose study: safety and tolerability
Experimental: as §1

[4] = 0.35 mg for 7 days then 2.0 mg for 14 days
[5] = 0.5 mg for 7 days then 3.0 mg for 14 days

Compound: O=C(O)C[C@H]1CCc2c1[nH]c1ccc(OCc3ccc(C4CCCC4)c(C(F)(F)F)c3)cc21 [L-arginine salt of Compound 1]
- Minimum post-dose Systolic BP, Change from Baseline Mean (healthy adult subjects [1]; [4]): −13.00 mmHg
- Minimum post-dose Systolic BP, Change from Baseline Median (healthy adult subjects [1]; [4]): −13.00 mmHg
- Minimum post-dose Systolic BP, Change from Baseline Min, Max (healthy adult subjects [1]; [4]): −28.00 to 0.00 mmHg
- Minimum post-dose Systolic BP, On Treatment Mean (healthy adult subjects [1]; [4]): 94.30 mmHg
- Minimum post-dose Diastolic BP, Change from Baseline Mean (healthy adult subjects [1]; [5]): −6.30 mmHg
- Minimum post-dose Diastolic BP, Change from Baseline Median (healthy adult subjects [1]; [5]): −7.00 mmHg
- Minimum post-dose Diastolic BP, Change from Baseline Min, Max (healthy adult subjects [1]; [5]): −13.00 to 3.00 mmHg
- Minimum post-dose Diastolic BP, On Treatment Mean (SD) (healthy adult subjects [1]; [5]): 50.20 (4.21) mmHg
- Minimum post-dose Heart Rate, Change from Baseline Mean (healthy adult subjects [1]; [5]): −7.30 BPM
- Minimum post-dose Heart Rate, Change from Baseline Median (healthy adult subjects [1]; [5]): −6.50 BPM
- Minimum post-dose Heart Rate, Change from Baseline Min, Max (healthy adult subjects [1]; [5]): −14.00 to −2.00 BPM
- Minimum post-dose Heart Rate, On Treatment Mean (SD) (healthy adult subjects [1]; [5]): 53.80 (4.73) BPM
- Minimum post-dose Systolic BP, Change from Baseline Mean (healthy adult subjects [1]; [5]): −7.80 mmHg
- Minimum post-dose Systolic BP, Change from Baseline Median (healthy adult subjects [1]; [5]): −5.00 mmHg
- Minimum post-dose Systolic BP, Change from Baseline Min, Max (healthy adult subjects [1]; [5]): −18.00 to 5.00 mmHg
- Minimum post-dose Systolic BP, On Treatment Mean (healthy adult subjects [1]; [5]): 93.20 mmHg
- Minimum post-dose Diastolic BP, Change from Baseline Mean (healthy adult subjects [1]; 0.7 mg for 21 days): −6.10 mmHg
- Minimum post-dose Diastolic BP, Change from Baseline Median (healthy adult subjects [1]; 0.7 mg for 21 days): −6.00 mmHg
- Minimum post-dose Diastolic BP, Change from Baseline Min, Max (healthy adult subjects [1]; 0.7 mg for 21 days): −16.00 to 2.00 mmHg
- Minimum post-dose Diastolic BP, On Treatment Mean (SD) (healthy adult subjects [1]; 0.7 mg for 21 days): 56.00 (8.31) mmHg
- Minimum post-dose Heart Rate, Change from Baseline Mean (healthy adult subjects [1]; 0.7 mg for 21 days): −5.50 BPM
- Minimum post-dose Heart Rate, Change from Baseline Median (healthy adult subjects [1]; 0.7 mg for 21 days): −5.00 BPM
- Minimum post-dose Heart Rate, Change from Baseline Min, Max (healthy adult subjects [1]; 0.7 mg for 21 days): −12.00 to −1.00 BPM
- Minimum post-dose Heart Rate, On Treatment Mean (SD) (healthy adult subjects [1]; 0.7 mg for 21 days): 54.20 (4.05) BPM
- Minimum post-dose Systolic BP, Change from Baseline Mean (healthy adult subjects [1]; 0.7 mg for 21 days): −9.70 mmHg
- Minimum post-dose Systolic BP, Change from Baseline Median (healthy adult subjects [1]; 0.7 mg for 21 days): −9.50 mmHg
- Minimum post-dose Systolic BP, Change from Baseline Min, Max (healthy adult subjects [1]; 0.7 mg for 21 days): −16.00 to −1.00 mmHg
- Minimum post-dose Systolic BP, On Treatment Mean (healthy adult subjects [1]; 0.7 mg for 21 days): 96.10 mmHg
- Minimum post-dose Diastolic BP, Change from Baseline Mean (healthy adult subjects [1]; 1.35 mg for 21 days): −5.20 mmHg
- Minimum post-dose Diastolic BP, Change from Baseline Median (healthy adult subjects [1]; 1.35 mg for 21 days): −7.50 mmHg
- Minimum post-dose Diastolic BP, Change from Baseline Min, Max (healthy adult subjects [1]; 1.35 mg for 21 days): −11.00 to 6.00 mmHg
- Minimum post-dose Diastolic BP, On Treatment Mean (SD) (healthy adult subjects [1]; 1.35 mg for 21 days): 53.70 (4.03) mmHg
- Minimum post-dose Heart Rate, Change from Baseline Mean (healthy adult subjects [1]; 1.35 mg for 21 days): −6.20 BPM
- Minimum post-dose Heart Rate, Change from Baseline Median (healthy adult subjects [1]; 1.35 mg for 21 days): −5.00 BPM
- Minimum post-dose Heart Rate, Change from Baseline Min, Max (healthy adult subjects [1]; 1.35 mg for 21 days): −18.00 to 3.00 BPM
- Minimum post-dose Heart Rate, On Treatment Mean (SD) (healthy adult subjects [1]; 1.35 mg for 21 days): 54.40 (4.09) BPM
- Minimum post-dose Systolic BP, Change from Baseline Mean (healthy adult subjects [1]; 1.35 mg for 21 days): −8.90 mmHg
- Minimum post-dose Systolic BP, Change from Baseline Median (healthy adult subjects [1]; 1.35 mg for 21 days): −8.00 mmHg
- Minimum post-dose Systolic BP, Change from Baseline Min, Max (healthy adult subjects [1]; 1.35 mg for 21 days): −22.00 to 3.00 mmHg
- Minimum post-dose Systolic BP, On Treatment Mean (healthy adult subjects [1]; 1.35 mg for 21 days): 100.10 mmHg
- Minimum post-dose Diastolic BP, Change from Baseline Mean (healthy adult subjects [1]; 2.0 mg for 21 days): −11.20 mmHg
- Minimum post-dose Diastolic BP, Change from Baseline Median (healthy adult subjects [1]; 2.0 mg for 21 days): −9.00 mmHg
- Minimum post-dose Diastolic BP, Change from Baseline Min, Max (healthy adult subjects [1]; 2.0 mg for 21 days): −21.00 to −4.00 mmHg
- Minimum post-dose Diastolic BP, On Treatment Mean (SD) (healthy adult subjects [1]; 2.0 mg for 21 days): 45.30 (7.42) mmHg
- Minimum post-dose Heart Rate, Change from Baseline Mean (healthy adult subjects [1]; 2.0 mg for 21 days): −8.30 BPM
- Minimum post-dose Heart Rate, Change from Baseline Median (healthy adult subjects [1]; 2.0 mg for 21 days): −7.50 BPM
- Minimum post-dose Heart Rate, Change from Baseline Min, Max (healthy adult subjects [1]; 2.0 mg for 21 days): −16.00 to −3.00 BPM
- Minimum post-dose Heart Rate, On Treatment Mean (SD) (healthy adult subjects [1]; 2.0 mg for 21 days): 51.00 (4.78) BPM
- Minimum post-dose Systolic BP, Change from Baseline Mean (healthy adult subjects [1]; 2.0 mg for 21 days): −9.80 mmHg
- Minimum post-dose Systolic BP, Change from Baseline Median (healthy adult subjects [1]; 2.0 mg for 21 days): −9.00 mmHg
- Minimum post-dose Systolic BP, Change from Baseline Min, Max (healthy adult subjects [1]; 2.0 mg for 21 days): −18.00 to −4.00 mmHg
- Minimum post-dose Systolic BP, On Treatment Mean (healthy adult subjects [1]; 2.0 mg for 21 days): 90.80 mmHg
- decrease in FC versus placebo across the study ([2]; 1 mg, did not reach statistical significance, P=0.08): 0.71
- decrease in CRP compared with placebo across the study ([2]; 1 mg, mixed-model for repeat measures, P=0.02): 0.72
- median FC at week 12, patients who did not achieve remission ([2]; 2 mg): 1129 µg/g
- median FC at week 12, patients who achieved remission ([2]; 2 mg, P<0.001 vs no remission): 62.0 µg/g
- decrease in FC compared with placebo across the study ([2]; 2 mg, mixed-model for repeat measures, P<0.001): 0.42
- decrease in CRP compared with placebo across the study ([2]; 2 mg, mixed-model for repeat measures, P=0.01): 0.70
- time at which decreases in FC and CRP levels versus placebo were first observed ([2]; 2 mg, sustained through week 12): 4 week
- mildly abnormal reproducible (NCS) pulmonary function test findings (FEV1 below 80%, FVC) post-dose (healthy adult subjects [3]; 1.35 mg dose): One subject
- subjects who developed new 1″ degree atrioventricular block (healthy adult subjects [3]; 2 mg group): 1 subject
- subjects with mildly abnormal post-treatment liver function tests (ALT & AST >2× ULN) (healthy adult subjects [3]; 2 mg group): 1 subject
- subjects who developed new 1″ degree atrioventricular block (healthy adult subjects [3]; 0.5, 3 mg group): 1 subject
- subjects with mildly abnormal post-treatment liver function tests (ALT & AST >2× ULN) (healthy adult subjects [3]; 0.5 escalating to 3 mg group): 1 subject
- SAEs or deaths (healthy adult subjects [3]; all dose levels): No SAEs or deaths occurred
- ophthalmoscopy findings (healthy adult subjects [3]; all dose levels): No clinically significant change from baseline
- other safety issues (vital signs, ECGs, PFTs, ophthalmoscopy, clinical laboratory tests) (healthy adult subjects [3]; all dose levels): no other clinically significant safety issues
- second degree heart block (healthy adult subjects [3]; all dose levels): No second degree heart block was found
- subjects discontinued due to an adverse event (healthy adult subjects [3]; all dose levels): No subjects were discontinued due to an adverse event
- most common adverse events (healthy adult subjects [3]; all dose levels, 21 days): contact dermatitis and leukopenia, followed by constipation, diarrhea, nausea, and abdominal pain
- severity of adverse events (healthy adult subjects [3]; all dose levels, 21 days): majority of adverse events were mild
- tolerability (healthy adult subjects [3]; all dose levels, 21 days): tolerated at all dose levels; also recorded: well tolerated at all doses tested
